Assays:
Format in all cases: in vivo
[1] = system: wheat (Triticum aestivum); assay: Test A pre-/postemergence plant response
Outline: (§1)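 Scores reflect visual plant injury relative to untreated controls on a 0–100 scale, recorded approximately 10 days after simultaneous preemergence soil spraying and postemergence spraying of one- to two-leaf seedlings grown in loam–sand.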

[2] = system: pigweed (Amaranthus retroflexus); assay: Test A pre-/postemergence plant response
Outline: as §1

wild oat (Avena fatua) = assay: Test C pre-/postemergence plant response; conditions: Preemergence
Outline: (§2)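 Scores (0 = no effect, 100 = complete control) are visual assessments made against control plants 15–25 days post-treatment in a controlled environment. Applications were preemergence and postemergence, with postemergence plants between 1- and 4-leaf stage.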

[3] = system: canarygrass (Phalaris minor); assay: Test C pre-/postemergence plant response; conditions: Preemergence
Outline: as §2

[4] = system: spring barley (Hordeum vulgare); assay: Test C pre-/postemergence plant response; conditions: Preemergence
Outline: as §2

[5] = system: wild mustard (Sinapis arvensis); assay: Test C pre-/postemergence plant response; conditions: Preemergence
Outline: as §2

[6] = system: downy bromegrass (Bromus tectorum); assay: Test C pre-/postemergence plant response; conditions: Preemergence
Outline: as §2

[7] = system: winter wheat (Triticum aestivum); assay: Test C pre-/postemergence plant response; conditions: Preemergence
Outline: as §2

[8] = system: winter barley (Hordeum vulgare); assay: Test C pre-/postemergence plant response; conditions: Preemergence
Outline: as §2

[9] = system: Italian ryegrass (Lolium multiflorum); assay: Test C pre-/postemergence plant response; conditions: Preemergence
Outline: as §2

[10] = system: green foxtail (Setaria viridis); assay: Test C pre-/postemergence plant response; conditions: Preemergence
Outline: as §2

[11] = system: spring wheat (Triticum aestivum); assay: Test C pre-/postemergence plant response; conditions: Preemergence
Outline: as §2

[12] = system: annual bluegrass (Poa annua); assay: Test C pre-/postemergence plant response; conditions: Preemergence
Outline: as §2

[13] = system: blackgrass (Alopecurus myosuroides); assay: Test C pre-/postemergence plant response; conditions: Preemergence
Outline: as §2

[14] = system: windgrass (Apera spica-venti); assay: Test C pre-/postemergence plant response; conditions: Preemergence
Outline: as §2

[15] = system: pigweed (Amaranthus retroflexus); assay: Test C pre-/postemergence plant response; conditions: Preemergence
Outline: as §2

[16] = Postemergence, 31 g ai/ha, 0 to 100 scale, 0 no effect, 100 complete control
[17] = Postemergence, 125 g ai/ha, 0 to 100 scale, 0 no effect, 100 complete control
[18] = Preemergence, 31 g ai/ha, 0 to 100 scale, 0 is no effect, 100 is complete control
[19] = Preemergence, 125 g ai/ha, 0 to 100 scale (0 no effect, 100 complete control)
[20] = 8 g ai/ha, scale 0 to 100 (0 no effect, 100 complete control)
[21] = 16 g ai/ha, scale 0 to 100 (0 no effect, 100 complete control)
[22] = 31 g ai/ha, scale 0 to 100 (0 no effect, 100 complete control)
[23] = 62 g ai/ha, scale 0 to 100, 0 no effect, 100 complete control

## Cc1cc(-c2ccc(Cl)cc2)nn1-c1c(OC(=O)Oc2ccccc2)cnn(C)c1=O [Compound 54]
[1]; [16]
  Plant response rating, Wheat: 30
[1]; [17]
  Plant response rating, Wheat: 60
[1]; [18]
  Plant response rating, Wheat: 0
[1]; [19]
  Plant response rating, Wheat: 60
[2]; [16]
  Plant response rating, Pigweed: 0
[2]; [17]
  Plant response rating, Pigweed: 0
[2]; [18]
  Plant response rating, Pigweed: 0
[2]; [19]
  Plant response rating, Pigweed: 0
Wild oat (Avena fatua); [20]
  Plant response rating, Oat, Wild: 0
Wild oat (Avena fatua); [21]
  Plant response rating, Oat, Wild: 0
Wild oat (Avena fatua); [22]
  Plant response rating, Oat, Wild: 40
Wild oat (Avena fatua); [23]
  Plant response rating, Oat, Wild: 70
[3]; [20]
  Plant response rating, Canarygrass: 0
[3]; [21]
  Plant response rating, Canarygrass: 70
[3]; [22]
  Plant response rating, Canarygrass: 80
[3]; [23]
  Plant response rating, Canarygrass: 95
[4]; [20]
  Plant response rating, Barley, Spring: 0
[4]; [21]
  Plant response rating, Barley, Spring: 0
[4]; [22]
  Plant response rating, Barley, Spring: 25
[4]; [23]
  Plant response rating, Barley, Spring: 70
[5]; [21]
  Plant response rating, Mustard, Wild: 0
[5]; [22]
  Plant response rating, Mustard, Wild: 0
[5]; [23]
  Plant response rating, Mustard, Wild: 0
[6]; [20]
  Plant response rating, Bromegrass, Downy: 0
[6]; [21]
  Plant response rating, Bromegrass, Downy: 0
[6]; [22]
  Plant response rating, Bromegrass, Downy: 15
[6]; [23]
  Plant response rating, Bromegrass, Downy: 80
[7]; [20]
  Plant response rating, Wheat, Winter: 0
[7]; [21]
  Plant response rating, Wheat, Winter: 0
[7]; [22]
  Plant response rating, Wheat, Winter: 35
[7]; [23]
  Plant response rating, Wheat, Winter: 50
[8]; [20]
  Plant response rating, Barley, Winter: 0
[8]; [21]
  Plant response rating, Barley, Winter: 10
[8]; [22]
  Plant response rating, Barley, Winter: 15
[8]; [23]
  Plant response rating, Barley, Winter: 75
[9]; [20]
  Plant response rating, Ryegrass, Italian: 0
[9]; [21]
  Plant response rating, Ryegrass, Italian: 20
[9]; [22]
  Plant response rating, Ryegrass, Italian: 100
[9]; [23]
  Plant response rating, Ryegrass, Italian: 100
[10]; [20]
  Plant response rating, Foxtail, Green: 40
[10]; [21]
  Plant response rating, Foxtail, Green: 98
[10]; [22]
  Plant response rating, Foxtail, Green: 100
[10]; [23]
  Plant response rating, Foxtail, Green: 100
[11]; [20]
  Plant response rating, Wheat, Spring: 0
[11]; [21]
  Plant response rating, Wheat, Spring: 25
[11]; [22]
  Plant response rating, Wheat, Spring: 65
[11]; [23]
  Plant response rating, Wheat, Spring: 98
[12]; [20]
  Plant response rating, Bluegrass: 0
[12]; [21]
  Plant response rating, Bluegrass: 0
[12]; [22]
  Plant response rating, Bluegrass: 0
[12]; [23]
  Plant response rating, Bluegrass: 25
[13]; [20]
  Plant response rating, Blackgrass: 35
[13]; [21]
  Plant response rating, Blackgrass: 70
[13]; [22]
  Plant response rating, Blackgrass: 100
[13]; [23]
  Plant response rating, Blackgrass: 100
[14]; [20]
  Plant response rating, Windgrass: 0
[14]; [21]
  Plant response rating, Windgrass: 0
[14]; [22]
  Plant response rating, Windgrass: 60
[14]; [23]
  Plant response rating, Windgrass: 75
[15]; [20]
  Plant response rating, Pigweed: 0
[15]; [21]
  Plant response rating, Pigweed: 0
[15]; [22]
  Plant response rating, Pigweed: 0
[15]; [23]
  Plant response rating, Pigweed: 0

## Cc1cc(-c2ccc(Cl)cc2)nn1-c1c(OS(=O)(=O)c2ccc(Cl)s2)cnn(C)c1=O [Compound 55]
[1]; [16]
  Plant response rating, Wheat: 0
[1]; [17]
  Plant response rating, Wheat: 30
[1]; [18]
  Plant response rating, Wheat: 0
[1]; [19]
  Plant response rating, Wheat: 50
[2]; [16]
  Plant response rating, Pigweed: 0
[2]; [17]
  Plant response rating, Pigweed: 0
[2]; [18]
  Plant response rating, Pigweed: 0
[2]; [19]
  Plant response rating, Pigweed: 0
Wild oat (Avena fatua); [20]
  Plant response rating, Oat, Wild: 0
Wild oat (Avena fatua); [21]
  Plant response rating, Oat, Wild: 0
Wild oat (Avena fatua); [22]
  Plant response rating, Oat, Wild: 0
Wild oat (Avena fatua); [23]
  Plant response rating, Oat, Wild: 65
[3]; [20]
  Plant response rating, Canarygrass: 0
[3]; [21]
  Plant response rating, Canarygrass: 0
[3]; [22]
  Plant response rating, Canarygrass: 20
[3]; [23]
  Plant response rating, Canarygrass: 90
[4]; [20]
  Plant response rating, Barley, Spring: 0
[4]; [21]
  Plant response rating, Barley, Spring: 0
[4]; [22]
  Plant response rating, Barley, Spring: 0
[4]; [23]
  Plant response rating, Barley, Spring: 70
[5]; [20]
  Plant response rating, Mustard, Wild: 0
[5]; [21]
  Plant response rating, Mustard, Wild: 0
[5]; [22]
  Plant response rating, Mustard, Wild: 0
[5]; [23]
  Plant response rating, Mustard, Wild: 0
[6]; [20]
  Plant response rating, Bromegrass, Downy: 0
[6]; [21]
  Plant response rating, Bromegrass, Downy: 0
[6]; [22]
  Plant response rating, Bromegrass, Downy: 0
[6]; [23]
  Plant response rating, Bromegrass, Downy: 40
[7]; [20]
  Plant response rating, Wheat, Winter: 0
[7]; [21]
  Plant response rating, Wheat, Winter: 0
[7]; [22]
  Plant response rating, Wheat, Winter: 0
[7]; [23]
  Plant response rating, Wheat, Winter: 60
[8]; [20]
  Plant response rating, Barley, Winter: 0
[8]; [21]
  Plant response rating, Barley, Winter: 0
[8]; [22]
  Plant response rating, Barley, Winter: 0
[8]; [23]
  Plant response rating, Barley, Winter: 60
[9]; [20]
  Plant response rating, Ryegrass, Italian: 0
[9]; [21]
  Plant response rating, Ryegrass, Italian: 0
[9]; [23]
  Plant response rating, Ryegrass, Italian: 90
[10]; [20]
  Plant response rating, Foxtail, Green: 20
[10]; [21]
  Plant response rating, Foxtail, Green: 40
[10]; [22]
  Plant response rating, Foxtail, Green: 100
[10]; [23]
  Plant response rating, Foxtail, Green: 100
[11]; [20]
  Plant response rating, Wheat, Spring: 0
[11]; [21]
  Plant response rating, Wheat, Spring: 0
[11]; [22]
  Plant response rating, Wheat, Spring: 50
[11]; [23]
  Plant response rating, Wheat, Spring: 60
[12]; [20]
  Plant response rating, Bluegrass: 0
[12]; [21]
  Plant response rating, Bluegrass: 0
[12]; [22]
  Plant response rating, Bluegrass: 0
[12]; [23]
  Plant response rating, Bluegrass: 15
[13]; [21]
  Plant response rating, Blackgrass: 40
[13]; [22]
  Plant response rating, Blackgrass: 80
[13]; [23]
  Plant response rating, Blackgrass: 95
[14]; [20]
  Plant response rating, Windgrass: 0
[14]; [21]
  Plant response rating, Windgrass: 0
[14]; [22]
  Plant response rating, Windgrass: 0
[14]; [23]
  Plant response rating, Windgrass: 60
[15]; [20]
  Plant response rating, Pigweed: 0
[15]; [21]
  Plant response rating, Pigweed: 0
[15]; [22]
  Plant response rating, Pigweed: 0
